pIC50: −log10 of the molar value.

This assay deals with T1, histamine H4 receptor (Homo sapiens, UniProt Q9H3N8).
T1 construct: expressed in transfected cells; host or cells: HEK293SFM cells (membrane preparation)
T1 sequence (Q9H3N8 whole entry): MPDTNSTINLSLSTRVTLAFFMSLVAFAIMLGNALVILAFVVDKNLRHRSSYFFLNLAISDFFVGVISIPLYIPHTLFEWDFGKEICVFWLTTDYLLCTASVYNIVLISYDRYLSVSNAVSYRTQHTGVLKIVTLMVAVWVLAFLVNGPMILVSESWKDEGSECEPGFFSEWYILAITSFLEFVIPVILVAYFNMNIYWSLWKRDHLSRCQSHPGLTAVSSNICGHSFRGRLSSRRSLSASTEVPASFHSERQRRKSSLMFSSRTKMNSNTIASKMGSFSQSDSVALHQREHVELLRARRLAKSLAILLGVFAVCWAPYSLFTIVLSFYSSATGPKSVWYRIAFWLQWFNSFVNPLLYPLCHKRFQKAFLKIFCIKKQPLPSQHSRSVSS
The assay can be described thus: H4 Membrane Binding Assay (3H-Histamine displacement). To be noted: membranes of recombinant HEK293SFM cells, 10 nM 3H-Histamine, 1.5 hr at room temperature. The method, then: Recombinant HEK293SFM cells expressing human H1, H2, H3, H4 or mouse H4 were harvested (Packard Filtermate Harvester) in ice-cold Tris-HCl, (50 mM, pH 7.5, Sigma) with protease inhibitors (Roche) and homogenized with a Polytron homogenizer. The homogenate was centrifuged for 5 minutes at 1000 g to remove nuclei and unbroken cells. The supernatant was centrifuged at 50000 g for 30 minutes, and the resulting pellet was re-suspended in ice-cold Tris-HCl (50 mM, pH 7.5). […] Nonspecific binding was determined by inclusion of 1000× unlabeled ligands. The bound radioactivity was separated by filtration through polyethyleneimine-treated GF/B filters (Perkin Elmer). The filters were washed eight times with ice-cold Tris-HCl (50 mM, pH 7.5), and radioactivity retained on the filters was measured by liquid scintillation counting. The binding data were evaluated with Prism.
For the compound `CN1CCN(c2nc(N)nc3cc(C(=O)NC(C)(C)c4ccccc4)ccc23)CC1` [Example 23, 2-Amino-N-(1-methyl-1-phenylethyl)-4-(4-methylpiperazin-1-yl)quinazoline-7-carboxamide], the pIC50 (commonly −log10 of the IC50, conventionally taken in molar units) was 6.42.

In the case of `CC(NC(=O)c1ccc2c(N3CCN(C)CC3)nc(N)nc2c1)c1ccccc1` (centres unmarked) [Example 24, 2-Amino-4-(4-methylpiperazin-1-yl)-N-(1-phenylethyl)quinazoline-7-carboxamide], the pIC50 was 6.25.

Turning to `CN1CCN(c2nc(N)nc3cc(C(=O)NCC4CC4)ccc23)CC1` [Example 25, 2-Amino-N-(cyclopropylmethyl)-4-(4-methylpiperazin-1-yl)quinazoline-7-carboxamide], the pIC50 was 6.24.

Consider `CNC(=O)c1ccc2c(N3CCN(C)CC3)nc(N)nc2c1` [Example 26, 2-Amino-N-methyl-4-(4-methylpiperazin-1-yl)quinazoline-7-carboxamide], for which the pIC50 was 6.31.

As to `CN1CCN(c2nc(N)nc3cc(C(=O)Nc4cccc(Cl)c4)ccc23)CC1` [Example 27, 2-Amino-N-(3-chlorophenyl)-4-(4-methylpiperazin-1-yl)quinazoline-7-carboxamide], the pIC50 is 6.05.

For the compound `CC(C)Cc1ccc(C(C)NC(=O)c2ccc3c(N4CCN(C)CC4)nc(N)nc3c2)cc1` (centres unmarked) [Example 28, 2-Amino-N-[1-(4-isobutylphenyl)ethyl]-4-(4-methylpiperazin-1-yl)quinazoline-7-carboxamide], the pIC50 is 6.77.

For the compound `CC(NC(=O)c1ccc2c(N3CCN(C)CC3)nc(N)nc2c1)c1ccc(Oc2ccccc2)cc1` (centres unmarked) [Example 29, 2-Amino-4-(4-methylpiperazin-1-yl)-N-[1-(4-henoxyphenyl)ethyl]quinazoline-7-carboxamide], the pIC50 was 6.80.

Consider `COc1ccc([C@@H](C)NC(=O)c2ccc3c(N4CCN(C)CC4)nc(N)nc3c2)cc1` [Example 30, 2-Amino-N-[(1R)-1-(4-methoxyphenyl)ethyl]-4-(4-methylpiperazin-1-yl)quinazoline-7-carboxamide], for which the pIC50 is 6.31.

Turning to `CC(NC(=O)c1ccc2c(N3CCN(C)CC3)nc(N)nc2c1)c1ccc(Br)cc1` (centres unmarked) [Example 31, 2-Amino-N-[1-(4-bromophenyl)ethyl]-4-(4-methylpiperazin-1-yl)quinazoline-7-carboxamide], the pIC50 is 6.45.

In the case of `Cc1ccc([C@H](C)NC(=O)c2ccc3c(N4CCN(C)CC4)nc(N)nc3c2)cc1` [Example 32, 2-Amino-N-[(1S)-1-(4-methylphenyl)ethyl]-4-(4-methylpiperazin-1-yl)quinazoline-7-carboxamide], the pIC50 is 6.48.

Turning to `CN1CCN(c2nc(N)nc3cc(C(=O)NCc4ccc(-c5ccccc5)cc4)ccc23)CC1` [Example 33], the pIC50 is 6.72.

As for `CN1CCN(c2nc(N)nc3cc(C(=O)NCc4ccc(Oc5ccccc5)cc4)ccc23)CC1` [Example 34, 2-Amino-4-(4-methylpiperazin-1-yl)-N-(4-phenoxybenzyl)quinazoline-7-carboxamide], the pIC50 is 6.97.

As for `CN1CCN(c2nc(N)nc3cc(C(=O)Nc4ccc(Oc5ccccc5)cc4)ccc23)CC1` [Example 35, 2-Amino-4-(4-methylpiperazin-1-yl)-N-(4-phenoxyphenyl)quinazoline-7-carboxamide], the pIC50 was 6.54.

As to `Cc1ccc(CNC(=O)c2ccc3c(N4CCN(C)CC4)nc(N)nc3c2)cc1Cl` [Example 36, 2-Amino-N-(3-chloro-4-methylbenzyl)-4-(4-methylpiperazin-1-yl)quinazoline-7-carboxamide], the pIC50 was 6.90.

`CN1CCN(c2nc(N)nc3cc(C(=O)NCCc4ccccc4)ccc23)CC1` [Example 37, 2-Amino-4-(4-methylpiperazin-1-yl)-N-(2-phenylethyl)quinazoline-7-carboxamide]: the pIC50 was 6.89.

With `CN1CCN(c2nc(N)nc3cc(C(=O)NCCCc4ccccc4)ccc23)CC1` [Example 38, 2-Amino-4-(4-methylpiperazin-1-yl)-N-(3-phenylpropyl)quinazoline-7-carboxamide], the pIC50 was 6.97.

As to `CN1CCN(c2cc(-c3ccc4c(c3)CN(C(=O)c3cccc(Cl)c3)CC4)nc(N)n2)CC1` [Example 39, 4-[2-(3-Chlorobenzoyl)-1,2,3,4-tetrahydroisoquinolin-7-yl]-6-(4-methylpiperazin-1-yl)pyrimidin-2-amine], the pIC50 is 6.73.

As to `CN1CCN(c2cc(-c3ccc4c(c3)CN(C(=O)Nc3cccc(Cl)c3F)CC4)nc(N)n2)CC1` [Example 40, 7-[2-Amino-6-(4-methylpiperazin-1-yl)pyrimidin-4-yl]-N-(3-chloro-2-fluorophenyl)-3,4-dihydroisoquinoline-2(1H)-carboxamide], the pIC50 was 7.80.

Take `CN1CCN(c2cc(-c3ccc4c(c3)CN(C(=O)CC3CCCC3)CC4)nc(N)n2)CC1` [Example 41, 4-[2-(Cyclopentylacetyl)-1,2,3,4-tetrahydroisoquinolin-7-yl]-6-(4-methylpiperazin-1-yl)pyrimidin-2-amine]: the pIC50 is 7.55.

`Cc1cccnc1N1CCC(NC(=O)N2CCc3ccc(-c4cc(N5CCN(C)CC5)nc(N)n4)cc3C2)CC1` [Example 42, 7-[2-Amino-6-(4-methylpiperazin-1-yl)pyrimidin-4-yl]-N-[1-(3-methylpyridin-2-yl)piperidin-4-yl]-3,4-dihydroisoquinoline-2(1H)-carboxamide]: the pIC50 was 6.99.

With `CN1CCN(c2cc(-c3ccc4c(c3)CN(C(=O)Nc3ccc(C#N)cn3)CC4)nc(N)n2)CC1` [Example 43, 7-[2-Amino-6-(4-methylpiperazin-1-yl)pyrimidin-4-yl]-N-(5-cyanopyridin-2-yl)-3,4-dihydroisoquinoline-2(1H)-carboxamide], the pIC50 was 7.24.

Take `CN1CCN(c2cc(-c3ccc4c(c3)CN(C(=O)Nc3ccc(C#N)nc3)CC4)nc(N)n2)CC1` [Example 44, 7-[2-Amino-6-(4-methylpiperazin-1-yl)pyrimidin-4-yl]-N-(6-cyanopyridin-3-yl)-3,4-dihydroisoquinoline-2(1H)-carboxamide]: the pIC50 is 6.93.

Consider `COC(=O)c1ccc(NC(=O)N2CCc3ccc(-c4cc(N5CCN(C)CC5)nc(N)n4)cc3C2)nc1` [Example 45, Methyl 6-({[7-[2-amino-6-(4-methylpiperazin-1-yl)pyrimidin-4-yl]-3,4-dihydroisoquinolin-2(1H)-yl]carbonyl}amino)nicotinate], for which the pIC50 is 7.22.

`COc1ccc(NC(=O)N2CCc3ccc(-c4cc(N5CCN(C)CC5)nc(N)n4)cc3C2)cn1` [Example 46, 7-[2-Amino-6-(4-methylpiperazin-1-yl)pyrimidin-4-yl]-N-(6-methoxypyridin-3-yl)-3,4-dihydroisoquinoline-2(1H)-carboxamide]: the pIC50 was 7.15.

Consider `CN1CCN(c2cc(-c3ccc4c(c3)CN(C(=O)NC3(C)CCCCC3)CC4)nc(N)n2)CC1` [Example 47, 7-[2-Amino-6-(4-methylpiperazin-1-yl)pyrimidin-4-yl]-N-(1-methylcyclohexyl)-3,4-dihydroisoquinoline-2(1H)-carboxamide], for which the pIC50 is 7.57.

For `CN1CCN(c2cc(-c3ccc4c(c3)CN(C(=O)Nc3nc(-c5ccc(Cl)cc5)cs3)CC4)nc(N)n2)CC1` [Example 48, 7-[2-Amino-6-(4-methylpiperazin-1-yl)pyrimidin-4-yl]-N-[4-(4-chlorophenyl)-1,3-thiazol-2-yl]-3,4-dihydroisoquinoline-2(1H)-carboxamide], the pIC50 was 7.00.

Turning to `CN1CCN(c2cc(-c3ccc4c(c3)CN(C(=O)Nc3nc(C(F)(F)F)cs3)CC4)nc(N)n2)CC1` [Example 50, 7-[2-Amino-6-(4-methylpiperazin-1-yl)pyrimidin-4-yl]-N-[4-(trifluoromethyl)-1,3-thiazol-2-yl]-3,4-dihydroisoquinoline-2(1H)-carboxamide], the pIC50 is 7.24.

Turning to `CC(NC(=O)N1CCc2ccc(-c3cc(N4CCN(C)CC4)nc(N)n3)cc2C1)c1ccccc1` (centres unmarked) [Example 51, 7-[2-Amino-6-(4-methylpiperazin-1-yl)pyrimidin-4-yl]-N-(1-phenylethyl)-3,4-dihydroisoquinoline-2(1H)-carboxamide], the pIC50 is 7.20.

For `CCOC(=O)N1CCC(NC(=O)N2CCc3ccc(-c4cc(N5CCN(C)CC5)nc(N)n4)cc3C2)CC1` [Example 52, Ethyl 4-({[7-[2-amino-6-(4-methylpiperazin-1-yl)pyrimidin-4-yl]-3,4-dihydroisoquinolin-2(1H)-yl]carbonyl}amino)piperidine-1-carboxylate], the pIC50 is 6.89.

In the case of `CN1CCN(c2cc(-c3ccc4c(c3)CN(C(=O)NC3CCC(C(=O)N(C)C)CC3)CC4)nc(N)n2)CC1` (centres unmarked) [Example 54, 7-[2-Amino-6-(4-methylpiperazin-1-yl)pyrimidin-4-yl]-N-{4-[(dimethylamino)carbonyl]cyclohexyl}-3,4-dihydroisoquinoline-2(1H)-carboxamide], the pIC50 is 6.36.

In the case of `CO[C@H]1CC[C@H](NC(=O)N2CCc3ccc(-c4cc(N5CCN(C)CC5)nc(N)n4)cc3C2)CC1` [Example 56, 7-[2-Amino-6-(4-methylpiperazin-1-yl)pyrimidin-4-yl]-N-(trans-4-methoxycyclohexyl)-3,4-dihydroisoquinoline-2(1H)-carboxamide], the pIC50 is 6.68.

Consider `CO[C@@H]1Cc2ccccc2[C@@H]1NC(=O)N1CCc2ccc(-c3cc(N4CCN(C)CC4)nc(N)n3)cc2C1` [Example 57, 7-[2-Amino-6-(4-methylpiperazin-1-yl)pyrimidin-4-yl]-N-[(1S,2R)-2-methoxy-2,3-dihydro-1H-inden-1-yl]-3,4-dihydroisoquinoline-2(1H)-carboxamide], for which the pIC50 was 7.03.

Source of the values: patent US8481732B2 (Incyte Corporation, priority 2009, dated 2013).
